Columns and labels:
[1] = tested on: asthmatic mice (ovalbumin-sensitized and ovalbumin-challenged); conditions: same mouse asthma model; Callaerts-Vegh et al. 2004; cited from earlier work
asthmatic mice [2] = test: β-adrenergic receptor drugs at low and high doses on airway resistance, Example 7; assay type: in vivo
Experimental: For these experiments, salbutamol was used for chronic administration at 0.5 mg/kg/day with a minipump and for acute administration at 0.15 mg/kg by i.v. bolus 15 minutes prior to challenge. […] Carvedilol was used at a high dose of 2400 ppm in chow or at a low dose of 720 ppm in chow. […] In these diagrams, Ctrl=control mice, non-asthmatic, non-drug treated; NTX=asthmatic mice, non-drug treated; AC=acute administration; 2d=chronic administration for 2 days; 28d=chronic administration for 28 days. The airway resistance (Raw) is plotted as cm H2O ml^−1 s.

[3] = tested on: subjects with mild asthma; test: Salbutamol effectiveness after methacholine challenge in subjects with mild asthma on nadolol, Example 15; assay type: in vivo, human; conditions: salbutamol 2.5 mg by nebulization
Text: Salbutamol is a short-acting β2-adrenergic receptor agonist.

β2-adrenergic receptor [4] = target: T1, β2-adrenergic receptor (Mus musculus, UniProt P18762); test: Immunohistochemistry of β2-adrenergic receptor levels in lung sections, Example 3; assay type: in vivo, mice; set-up: from tissue; host or cells: mouse lung sections; conditions: chronic nadolol versus untreated animals; epifluorescent microscopy
T1 sequence (P18762 whole entry): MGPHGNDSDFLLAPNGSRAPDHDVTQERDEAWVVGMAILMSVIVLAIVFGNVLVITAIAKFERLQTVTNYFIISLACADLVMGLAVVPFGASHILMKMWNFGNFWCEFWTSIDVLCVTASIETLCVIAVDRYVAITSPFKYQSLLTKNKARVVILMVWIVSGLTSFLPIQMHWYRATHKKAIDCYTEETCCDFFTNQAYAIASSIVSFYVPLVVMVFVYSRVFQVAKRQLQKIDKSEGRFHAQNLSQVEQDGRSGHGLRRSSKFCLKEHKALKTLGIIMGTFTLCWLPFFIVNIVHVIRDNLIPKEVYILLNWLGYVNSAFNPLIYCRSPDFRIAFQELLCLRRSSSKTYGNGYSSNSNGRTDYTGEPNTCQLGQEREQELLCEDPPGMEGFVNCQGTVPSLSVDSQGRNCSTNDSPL
Experimental: The mice were sacrificed and the lungs excised. Then the lungs were fixed in 4% paraformaldehyde (45 min, 0° C.). After fixation, lungs were washed in PBS (60 min) and placed in increasing concentrations of sucrose (10% sucrose/5% glycine in PBS for 30 min; 20% sucrose/10% glycine in PBS for 30 min; 30% sucrose/15% glycine in PBS for 12 h at 4° C.). Lungs were embedded in OCT and 12-μm sections cut with a Tissue-Tek II cryostat. The sections were air-dried and fixed with 4% paraformaldehyde for 15 minutes. After 3 washes in PBS, the slides were blocked with 5% milk in PBS for 1 hour, and then incubated overnight with anti-β2-adrenergic receptor antibody (1:200, Santa Cruz Biotechnology) in blocking solution. Slides were washed in PBS and incubated with secondary antibody (1:200, Cy3 goat anti-rabbit antibody, 16 h at 4° C.). […] After washing with PBS, coverslips were mounted and viewed by epifluorescent microscopy.

β-arrestin pathway = test: Blockade of the β-arrestin pathway, Example 16 / FIG. 16; assay type: cell-based
cAMP accumulation = test: cAMP accumulation, Example 16 / FIG. 16; assay type: cell-based
asthmatic mice [5] = test: Decrease in airway resistance (Raw) by period of administration, Example 8 / Table 2; assay type: in vivo
Experimental: (§1) The periods of administration of the agents are 15 minutes, 2 days, and 28 days. […] This strongly supports the concept of combination therapy, such as with an inverse agonist and an agonist.

[6] = tested on: ovalbumin-sensitized, allergen-challenged mice; test: Aminophylline on acute airway effects of nadolol (methacholine-induced bronchoconstriction), Example 5; assay type: in vivo; conditions: nadolol 0.72 mg/kg i.p. 15 minutes prior to methacholine challenge
Experimental: At time point 1 (time=−10 min) baseline airway resistance of the mice was determined. At time point 2 (time=−5 min) methacholine was infused into mice to reach their EC70.

[7] = tested on: mucous metaplasia in sensitized/challenged mice; test: Mucous metaplasia in sensitized/challenged mice (photomicrographs), Example 10; assay type: in vivo; conditions: sensitized/challenged mice after treatment
[8] = cited from earlier work
β2-adrenergic receptor [9] = test: Determination of β-adrenergic receptor density by radioligand (ICYP) binding in lung membranes of treated asthmatic mice, Example 2; assay type: in vivo; conditions: for Apparent KD (of radioligand ICYP): KD of ICYP binding, not of the drug
Experimental: β2-adrenergic receptor numbers were measured in asthmatic mice as follows. […] Mice were sacrificed and lung membranes were isolated as follows. Frozen lung tissue was homogenized in an ice-cold buffer containing 0.32 M sucrose and 25 mM Tris (pH 7.4) using a polytron (Pro 200, Pro Scientific, Inc.). The homogenate was centrifuged at 1000×g for 10 min at 4° C. The resulting supernatant was centrifuged at 40,000×g for 20 min at 4° C. The pellet was suspended in an ice-cold 25 mM Tris-HCl buffer (pH 7.4) and centrifuged at 40,000×g for 20 min at 4° C. The final pellet was suspended in 200 μL of 25 mM Tris-HCl (pH 7.4); membrane protein concentration was determined by BCA protein assay kit. […] The incubation was done at 37° C. for 2 h and terminated by rapid vacuum filtration through glass fiber filters. The filters were washed three times with 250 μL of cold wash buffer (25 mM Tris-HCl, pH 7.4) and the radioactivity determined in a counter. […] Receptor densities are expressed as femtomoles of sites per milligram of protein. Bmax is determined by nonlinear regression of the saturation binding curves. […] Please note that the 15-minute and 28-day time points refer to duration of drug treatment.

[10] = tested on: patients who had a history of failing to quit smoking programs; test: Success of smoking cessation versus placebo, Example 14; assay type: in vivo, human; conditions: patients who had failed quit smoking programs at least 5 times
[11] = tested on: asthmatic mice (ovalbumin-sensitized and ovalbumin-challenged); test: Airway responsiveness to methacholine (airway resistance Raw, forced oscillation) in murine model of asthma, Example 1; assay type: in vivo, Balb/cJ mice
Experimental: The results obtained in drug-treated animals were compared with those obtained in vehicle-treated counterparts (controls) in experiments performed in close temporal relationship. […] Mice were sensitized with subcutaneous injection of 25 μg of ovalbumin adsorbed to aluminum hydroxide on protocol days 2, 9, and 16. Subsequently, mice were given 50 μL of saline solution containing 25 μg of ovalbumin intranasally, on a daily basis, from protocol days 23 through 27. A group of ovalbumin-sensitized saline-challenged mice serves as controls for systemic sensitization and respiratory challenges with ovalbumin. Prior to intranasal administrations, mice were sedated with halothane vapor. For the study of Example 1, ovalbumin-sensitized and ovalbumin-challenged mice, and ovalbumin-sensitized and saline-challenged mice will be referred to as asthmatic mice and control mice, respectively. […] To examine the effects of duration of β-adrenergic ligand therapy on the phenotype of the murine model of asthma, the experimental drugs were administered either acutely or chronically to different groups of asthmatic mice. […] These concentrations were chosen based on those producing therapeutic effects in mice in previously published studies. The non-asthmatic mice were fed normal chow. Salbutamol was delivered for 28 days at a dose of 0.5 mg/kg/day using an osmotic minipump (Alzet®, #2004, Durect Corporation, Cupertino, CA). […] Airway resistance (Raw) was measured using the forced oscillation technique. The cellular composition of bronchoalveolar lavage fluid (BALF) was also determined. […] However, it was observed that the degree of airway responsiveness and the number of eosinophils recovered in BALF were lower in non-treated asthmatic mice studied in close temporal relationship with mice receiving acute β-adrenergic antagonist treatments that in those obtained in non-treated asthmatic mice studied concomitantly with mice on chronic β-adrenergic antagonist therapy. […] The complex input impedance of the respiratory system was computed and the value of the real part of respiratory system impedance at 19.75 Hz was taken to reflect the magnitude of airway resistance (Raw). To examine the degree of airway responsiveness of each animal, the values for Raw as a function of methacholine doses were plotted. The largest value for Raw achieved in response to methacholine stimulation was referred to as […]. For mice that achieved a plateau in the methacholine dose-Raw response curve, the ED50 was calculated by linear interpolation using the GraphPad Prism4 (GraphPad Software, Inc.). Results obtained for β-adrenergic drug-treated and non-treated mice were performed using the analysis of variance for multiple groups of a Student's t-test for comparing two groups. The Bonferroni test was used to examine the statistical differences between experimental groups. The effects of acute drug treatments on baseline respiratory system mechanics were assessed using a two-tailed paired t-test. A value of P<0.05 was considered significant.

β2-adrenergic receptor [12] = target: T1, β2-adrenergic receptor; test: Upregulation of β2-adrenergic receptor density by period of administration, Example 8 / Table 2; assay type: in vivo, mice; set-up: from tissue
Experimental: as §1

## CC(C)(C)NCC(O)COc1cccc2c1CC(O)C(O)C2 (stereo not shown) [Nadolol, nadolol]
[1]
  airway hyperresponsiveness, administered acutely: worsens airway hyperresponsiveness
  airway hyperresponsiveness, administered chronically: prevents airway hyperresponsiveness
Asthmatic mice [2]; chronic administration in chow, high and low dose
  protection from airway hyperresponsiveness: providing protection from airway hyperresponsiveness with chronic administration
Asthmatic mice [2]; nadolol 1 ppm in chow
  airway resistance (Raw) at 1 ppm in chow: identical to the untreated mice
[3]
  effect on effectiveness of salbutamol after methacholine challenge: does not block the effectiveness of the administration of salbutamol
β2-adrenergic receptor [4]
  labeling with anti-β2-adrenergic receptor antibodies in lungs: considerably more intense
β-arrestin pathway
  block of the β-arrestin pathway: acts to block the β-arrestin pathway
cAMP accumulation
  cAMP accumulation: not associated with cAMP accumulation
Asthmatic mice [5]; 15 minutes administration
  Decreased Raw: no
Asthmatic mice [5]; 2 days administration
  Decreased Raw: yes
Asthmatic mice [5]; 28 days administration
  Decreased Raw: yes
[6]
  baseline airway resistance: the same baseline airway resistance as non-drug treated sensitized and allergen-challenged mice
[7]
  mucous metaplasia: nearly complete elimination of mucous metaplasia
[8]
  lipid solubility: low lipid solubility
β2-adrenergic receptor [9]; chronic administration, versus untreated methacholine-challenged asthmatic mice
  increase of the level of β2-adrenergic receptors over the non-treated mice: nearly eightfold increase
β2-adrenergic receptor [9]; lung membranes, drug treatment 15 Minutes
  Apparent KD (of radioligand ICYP): (695.1 ± 286.3) pM
β2-adrenergic receptor [9]; lung membranes, drug treatment 15 Minutes, mean ± SEM, n=3-5
  Bmax (β-adrenergic receptor density): 181.9 ± 48.28 femtomoles of sites per milligram of protein
β2-adrenergic receptor [9]; lung membranes, drug treatment 28 Days
  Apparent KD (of radioligand ICYP): (1591.6 ± 335.0) pM
β2-adrenergic receptor [9]; lung membranes, drug treatment 28 Days, mean ± SEM, n=3-5
  βmax (β-adrenergic receptor density): 785.5 ± 154.8 femtomoles of sites per milligram of protein
[10]
  reduction in smoking: 70%
[11]; drug delivered for 28 days (chow or osmotic minipump)
  airway responsiveness to methacholine provocation (Raw), chronic treatment: produced a decrease in airway responsiveness, which was more pronounced than that caused by carvedilol treatment
[11]; single intravenous bolus 15 minutes before methacholine
  airway responsiveness to methacholine provocation (Raw), acute treatment: enhanced the airway responsiveness of asthmatic mice
β2-adrenergic receptor [12]; 15 minutes administration
  Increased β2AR density: no
β2-adrenergic receptor [12]; 2 days administration
  Increased β2AR density: yes
β2-adrenergic receptor [12]; 28 days administration
  Increased β2AR density: yes

From patent US20250017878A1 (Chronic Airway Therapeutics Limited, priority 2021, published 2025)
